Earlier results on 2 molecules are cited in patent US6803034B2, “Compositions and methods for odor and fungal control in ballistic fabric and other protective garments” (Procter & Gamble Company, priority 2000, dated 2004).

On to `[H]/N=C(\N/C(=N/[H])NCCCCCCNC(=N)NC(=N)Nc1ccc(Cl)cc1)Nc1ccc(Cl)cc1` [chlorhexidine digluconate, 1,1′-hexamethylene bis(5-(p-chlorophenyl)biguanide)], for which the solubility in water entry is “about 70%”.

As for `[H]/N=C(\N/C(=N/[H])NCCCCCCNC(=N)NC(=N)Nc1ccc(Cl)cc1)Nc1ccc(Cl)cc1` [chlorhexidine diacetate, 1,1′-hexamethylene bis(5-(p-chlorophenyl)biguanide)], the solubility in water result is recorded as “about 1.8%”.
